Patent publication US20260014278A1, “HYBRID PEPTIDE DENDRIMER SYSTEMS AND EXTRAHEPATIC DELIVERY” (NUNTIUS THERAPEUTICS LIMITED, priority 2022, published 2026)
One block for each substance: values may come before it.

What was measured:
human THP-1 cells = assay: eGFP mRNA transfection of human THP-1 macrophages, flow cytometry; assay type: cell-based; conditions: GSCG1,2-RL, 3-LR NP=0.16:1, GSCG1-LRLR NP=0.6, GSCG1,2-RHL NP=5:1, GSCG1,2-RF, 3HL NP=0.6:1, RHCG1-R NP=0.6:1, DOTMA:DOPE w/w 10:1, lipid-only w/w 3.2:1, FIG. 3
Protocol: THP-1 cells (a human leukaemia monocytic cell line) were sub-cultured in RPMI (with glutamax)+10% heat inactivated FBS (complete media) at 3E+5 cells/ml and passaged every 3-4 days. For macrophage polarisation 7.5E+6 cells were seeded in T75 flasks in a total of 20 ml complete media containing 5 ng/ml PMA (1:1000 of 5 ug/ml stock). The cells were transferred to the 37° C. incubator for overnight. After 24 hrs, THP-1 cells were washed with complete medium and a fresh flask complete medium (not containing PMA) was overlaid on the cells. After a further 72 hrs, the complete medium was exchanged for fresh complete media containing 20 ng/ml rhlL-4 (1:500 of 10 μg/ml stock). 24 hrs later the cells were harvested by firstly washing the cells with PBS followed by a 5 minute treatment at 37° C. with 5 mM EDTA (diluted in PBS). Cells were spun down at 300 g for 5 minutes and resuspended in a complete medium containing 20 ng/ml rhlL-4 at 2.4E+5 cells/mi. 500 ul of cells were seeded into each well on a 24-well plate and left overnight in the 37° C. incubator.
The medium overlaying the polarised THP-1 cells was aspirated and exchanged with 480 ul/well complete media containing 20 ng/ml rhlL-4. […]
Data were collected using a BD LSRFortessa I analyser running […] software (Beckton Dickinson). All collected data were analysed using FlowJo 10.0 software. […]

[1] = Dynamic light scattering: hydrodynamic size and polydispersity index (PDI) of nanoparticles; assay type: physicochemical
Protocol: (§1) The hydrodynamic size was measured using the dynamic light scattering (DLS) technique. DLS is a very sensitive, non-invasive method to measure size and size distribution of nanoparticles in a liquid. […] Analysing these intensity fluctuations allows us to calculate the velocity of the Brownian motion. The size of the nanoparticles can be determined by using the Stokes-Einstein relationship. With the latest technology, it can measure nanoparticles smaller than 1 nm.
PDI is used to estimate the average uniformity of a particle solution, The method of cumulants is a standard technique for analysing DLS data on sample polydispersity. PDI is a number calculated from a 2 parameter fit to the correlation data (the cumulants analysis). The cumulants analysis is used to evaluate the autocorrelation function generated by a DLS experiment. The calculation is defined in ISO 13321 and ISO 22412. PDI values greater than 0.7 indicate that the sample has a very broad size distribution and is not suitable for the DLS technique. The calculations for these parameters are defined in the ISO standard document 13321:1996 E and ISO 22412:2008.
as §1, with “Size, zeta potential and polydispersity index (PDI) measurement: The hydrodynamic” for “The hydrodynamic”, “scattering (DLS) technique using the Zetasizer Advance Series—Pro (Malvern Panalytical Ltd, Malvern, UK) according to the manufacturer's instructions. DLS is” for “scattering (DLS) technique. DLS is”
The data obtained with DLS measurements can also be used to calculate the PDI of particle in solution. PDI is used to estimate the average uniformity of a particle solution. The method of cumulants is a standard technique for analysing DLS data on sample polydispersity. PDI is a number calculated from a 2 parameter fit to the correlation data (the cumulants analysis). The cumulants analysis is used to evaluate the autocorrelation function generated by a DLS experiment. The calculation is defined in ISO 13321 and ISO 22412. PDI values greater than 0.7 indicate that the sample has a very broad size distribution and is not suitable for the DLS technique. The calculations for these parameters are defined in the ISO standard document 13321:1996 E and ISO 22412:2008.
To measure the size and PDI, the samples were diluted 16× in 25 mM HEPES buffer (5 μl sample+75 μl buffer). Parameters: reference material: polystyrene latex, dispersant: water, 25° C. The PDI measurements were measured in nanoparticles comprising a dendrimer:nucleic acid NP ratio of 8:1.

HeLa cells = assay: Luciferase plasmid (pCl-Luc) DNA transfection of HeLa cells; assay type: cell-based, human; conditions: for transfection, comparison of generations G1, G2, G3: pCl-Luc with D/D, 24 h, FIG. 16A
Excerpt: (§2) FIG. 15. Comparison of the transfection efficiency of G1,2,3-RL with other commercial transfection reagents including DOTMA/DOPE, Polyethylenimine and Lipofectamine 2000 for DNA delivery. (A) Transfection in HeLa cells without the presence of serum, (B) transfection in HeLa cells with the presence of serum, (C) transfection in Neuro2A cells without the presence of serum and (D) transfection in Neuro2A cells with the presence of serum. Cells transfected with a luciferase-expressing plasmid (pCl-Luc) in the presence of GSCG1,2,3-RL with D/D (measured 24 h after transfection). The luminescence values were normalized by dividing them by the analogous values for cells treated with a D/D DNA complex to generate the % of transfection. Conditions: 1×10^4 cells were transfected with 0.25 μg pCl-Luc for 4 hours without serum or in the presence of 10% serum. Error bars refer to the mean±SEM for experiments carried out in triplicate. […] D/D is DOTMA/DOPE at w/w 1:1.
(§3) FIG. 16. Comparison of the transfection efficiency of dendrimers with different generations (G1, G2 and G3) with different N/P ratios and cationic residues (e.g. KL vs RL) for DNA delivery. (A) Transfection efficiency in HeLa cells, (B) transfection efficiency in Neuro2A cells. Cells transfected with a luciferase-expressing plasmid (pCl-Luc) in the presence of peptide dendrimers with D/D (measured 24 h after transfection). The luminescence values were normalized by dividing them by the analogous values for cells treated with a D/D DNA complex (w/w 1:1, 0.25 μg) to generate the % of transfection. Conditions: 1×10^4 cells were transfected with 0.25 μg pCl-Luc. Error bars refer to the mean±SEM for experiments carried out in triplicate. * denotes p<0.05. D/D is DOTMA/DOPE at w/w 1:1. Generation 2 and generation 3 dendrimers perform better at transfecting both HeLa and Neuro2A cells compared to generation 1 dendrimers.
(§4) Using a third generation peptide dendrimer, GSCG1,2,3-RL, the inventors also compared the transfection efficiency of DNA using this dendrimer to that of commercially available transfection reagents. […]

Neuro2A cells = assay: Luciferase plasmid (pCl-Luc) DNA transfection of Neuro2A cells; assay type: cell-based; conditions: for transfection, comparison of generations G1, G2, G3: pCl-Luc with D/D, 24 h, FIG. 16B
Excerpt: as §2, §3, §4

[2] = tested on: macrophage-polarised primary bone marrow derived monocytes; assay: eGFP mRNA transfection of macrophage-polarised primary mouse bone marrow derived monocytes, flow cytometry; assay type: cell-based; conditions: GSCG1,2-RHL NP=0.6:1, GSCG1,2-RL, 3-LR NP=0.16:1, GSCG1,RL, 2-LR NP=8:1, DOTMA:DOPE w/w 10:1, lipid-only DOTMA/DOPE w/w 3.2:1, FIG. 2
Protocol: BMDM cells were isolated using the StemCell Tech EasySep Mouse Monocyte Isolation Kit from mouse bone marrow cell suspension. The cells were resuspended in complete medium (DMEM+1% glutamax+10% heat inactivated FBS+1% Pen/Strep) enriched with 50 ng/ml murine M-CSF (1:1000 of 50 μg/ml stock) at 1E+6 cells/mi. 2 million cells (i.e. 2 mL) was seeded in each well of 6-well plate(s). The plate was incubated at 37° C. for 4 days. Half media exchange was performed using complete media enriched with […] murine M-CSF and 40 ng/ml murine IL-4. Cells were then harvested the next day (day 5) by washing cells with PBS and a 10 minute incubation with 5 mM EDTA (diluted in PBS) at 37° C. followed by plate tapping and resuspension. […]
Data were collected using a BD LSRFortessa I analyser running […] software (Beckton Dickinson). All collected data were analysed using FlowJo 10.0 software.
Transfection efficiency of macrophage-polarised primary bone marrow derived monocytes using various peptide dendrimer/lipid nanoparticles was assessed and compared to lipid-only nanoparticles (LPX-RNA). Each nanoparticle, with or without dendrimer, included eGFP mRNA to allow analysis of absolute numbers of cells transfected to be assessed by flow cytometry. […]

PDI ([1]; Table 7, first generation dendrimers for mixed dendrimer nanoparticles): 0.566
Substance: (R)2KRHC-NH2 [RHCG1-R]
transfection efficiency (human THP-1 cells): 30-35%

Substance: (RL)4(KRL)2KGSC-NH2 [GSCG1,2-RL]
transfection efficiency in comparison to GSCG1,2-KL (HeLa cells; N/P ratio of 10:1 or 20:1, FIG. 16): higher transfection efficiency
transfection efficiency in comparison to GSCG1,2-KL (Neuro2A cells; N/P ratio of 20:1, FIG. 16): higher transfection efficiency

Substance: (KL)2KGSC-NH2 [GSCG1-KL]
transfection, comparison of generations G1, G2, G3 (HeLa cells): do not transfect
transfection, comparison of generations G1, G2, G3 (Neuro2A cells): do not transfect

Polydispersity Index (PDI) ([1]; peptide dendrimer, lipid and mRNA complexes, N:P 8:1, DOTMA/DOPE w/w 10:1 to mRNA): 0.109
Substance: (LR)4(KRL)2KRHC-NH2 [RHCG1-RL, 2-LR]
transfection efficiency [2]: ~50%

Substance: (RL)2KGSC-NH2 [GSCG1-RL]
transfection, comparison of generations G1, G2, G3 (HeLa cells): do not transfect
transfection, comparison of generations G1, G2, G3 (Neuro2A cells): do not transfect
